The text below walks through data of ChEMBL document CHEMBL1150213, “Protein-tyrosine kinase inhibition: mechanism-based discovery of antitumor agents” (J Nat Prod, 1992).

Test [1] has as its target Proto-oncogene tyrosine-protein kinase Src (Homo sapiens, UniProt P12931).
Description: Inhibition of p60c-src expressed in chick embryo fibroblast
Test [2] addresses T1, Epidermal growth factor receptor (Homo sapiens, UniProt P00533). In words: Inhibition of EGFR in human A431 cells at 400 nmol/mg protein in presence of EGF. It counts as cell-based. The note with it: A-431.
Test [3] addresses T1, Epidermal growth factor receptor. Briefly: Inhibition of EGFR in human A431 cells at 400 nmol/mg protein in absence of EGF. It counts as cell-based. The note with it: A-431.
Test [4] in a line: Inhibition of p40 tyrosine kinase.
For test [5], the target named is T1, Epidermal growth factor receptor.
Test [6] deals with T2, Tyrosine-protein kinase transforming protein Abl (Abelson murine leukemia virus, UniProt P00521).
T2 sequence (P00521 whole entry): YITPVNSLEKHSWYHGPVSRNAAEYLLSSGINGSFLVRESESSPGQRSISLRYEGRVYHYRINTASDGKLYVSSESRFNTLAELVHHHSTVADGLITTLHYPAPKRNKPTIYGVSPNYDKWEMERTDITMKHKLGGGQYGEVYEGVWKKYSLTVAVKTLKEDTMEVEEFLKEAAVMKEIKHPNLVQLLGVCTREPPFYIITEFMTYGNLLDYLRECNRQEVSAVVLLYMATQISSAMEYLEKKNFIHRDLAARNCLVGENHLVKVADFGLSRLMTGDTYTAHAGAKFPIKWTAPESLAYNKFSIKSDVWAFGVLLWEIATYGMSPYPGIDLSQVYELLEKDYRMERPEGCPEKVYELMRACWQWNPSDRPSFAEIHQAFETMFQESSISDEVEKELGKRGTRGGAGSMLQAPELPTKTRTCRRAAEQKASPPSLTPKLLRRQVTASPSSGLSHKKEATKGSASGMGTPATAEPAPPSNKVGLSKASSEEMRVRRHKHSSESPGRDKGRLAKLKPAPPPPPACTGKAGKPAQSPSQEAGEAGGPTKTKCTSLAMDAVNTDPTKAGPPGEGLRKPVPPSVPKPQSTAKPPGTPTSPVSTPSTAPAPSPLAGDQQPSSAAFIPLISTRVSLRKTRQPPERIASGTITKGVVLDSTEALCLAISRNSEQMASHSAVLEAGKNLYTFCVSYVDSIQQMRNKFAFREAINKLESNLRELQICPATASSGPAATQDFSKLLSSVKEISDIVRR
Description: Inhibition of Abelson murine leukemia virus p60 v-abl

Molecules are shown by their SMILES. ≈ marks a conversion by molar mass, not a printed value. Where a SMILES comes first, the peptide text is derived from it. The star is where a group is joined. CH2Cl = ClC*

What is called inhibition is the percentage by which the read-out fell short of the control.

T1 sequence (P00533 whole entry): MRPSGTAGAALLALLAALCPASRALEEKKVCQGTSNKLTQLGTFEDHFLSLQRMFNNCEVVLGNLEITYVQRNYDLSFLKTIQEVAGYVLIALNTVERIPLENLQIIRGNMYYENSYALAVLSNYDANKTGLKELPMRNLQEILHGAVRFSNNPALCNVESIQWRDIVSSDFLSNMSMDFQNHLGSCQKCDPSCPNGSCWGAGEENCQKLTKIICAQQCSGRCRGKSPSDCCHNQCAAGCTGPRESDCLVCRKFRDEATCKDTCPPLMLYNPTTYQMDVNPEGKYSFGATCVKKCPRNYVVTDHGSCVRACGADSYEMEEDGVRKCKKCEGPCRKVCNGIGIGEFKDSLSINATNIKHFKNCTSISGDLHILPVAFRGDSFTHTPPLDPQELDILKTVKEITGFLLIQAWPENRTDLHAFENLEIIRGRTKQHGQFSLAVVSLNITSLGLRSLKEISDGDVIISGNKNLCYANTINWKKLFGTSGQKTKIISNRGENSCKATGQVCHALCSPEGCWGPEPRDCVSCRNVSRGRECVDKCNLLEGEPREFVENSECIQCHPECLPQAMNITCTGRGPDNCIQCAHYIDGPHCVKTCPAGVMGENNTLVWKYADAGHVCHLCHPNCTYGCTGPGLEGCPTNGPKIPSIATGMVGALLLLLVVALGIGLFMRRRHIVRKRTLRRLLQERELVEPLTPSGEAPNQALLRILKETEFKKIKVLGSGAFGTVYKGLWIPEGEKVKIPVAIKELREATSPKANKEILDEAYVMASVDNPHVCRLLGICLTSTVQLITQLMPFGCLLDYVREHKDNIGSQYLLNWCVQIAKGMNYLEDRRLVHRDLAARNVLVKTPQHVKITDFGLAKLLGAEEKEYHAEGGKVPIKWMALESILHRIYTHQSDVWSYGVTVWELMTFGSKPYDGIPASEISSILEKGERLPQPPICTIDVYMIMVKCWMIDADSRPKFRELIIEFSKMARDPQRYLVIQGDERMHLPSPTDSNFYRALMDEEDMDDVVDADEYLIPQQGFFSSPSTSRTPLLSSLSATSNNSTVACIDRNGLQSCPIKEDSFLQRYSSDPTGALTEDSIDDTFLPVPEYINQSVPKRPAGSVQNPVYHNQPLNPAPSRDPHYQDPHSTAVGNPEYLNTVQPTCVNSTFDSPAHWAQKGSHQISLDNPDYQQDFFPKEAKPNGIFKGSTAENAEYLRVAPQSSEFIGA
Proto-oncogene tyrosine-protein kinase Src, sequence (P12931 2-536 limits assumed): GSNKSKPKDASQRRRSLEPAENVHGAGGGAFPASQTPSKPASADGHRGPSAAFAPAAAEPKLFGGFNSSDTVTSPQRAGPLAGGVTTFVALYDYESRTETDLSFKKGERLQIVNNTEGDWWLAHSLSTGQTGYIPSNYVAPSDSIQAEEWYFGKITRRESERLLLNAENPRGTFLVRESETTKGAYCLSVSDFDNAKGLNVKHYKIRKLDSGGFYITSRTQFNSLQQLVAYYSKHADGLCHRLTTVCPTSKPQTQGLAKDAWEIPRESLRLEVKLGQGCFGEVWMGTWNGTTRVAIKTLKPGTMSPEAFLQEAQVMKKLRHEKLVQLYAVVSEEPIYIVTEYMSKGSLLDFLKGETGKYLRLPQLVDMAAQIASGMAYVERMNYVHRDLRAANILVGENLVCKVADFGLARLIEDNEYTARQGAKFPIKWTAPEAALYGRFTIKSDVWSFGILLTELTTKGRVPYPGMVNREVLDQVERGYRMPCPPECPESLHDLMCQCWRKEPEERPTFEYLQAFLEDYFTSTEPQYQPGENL

Take `Nc1ncnc2c1ncn2[C@@H]1O[C@H](COP(=O)(O)O)[C@@H](O)[C@H]1O` [ADENOSINE PHOSPHATE]: in test [1], the IC50 worked out at 0.1 µM. Turning to `C[C@H](NC(=O)OCc1ccccc1)C(=O)CCl`, the inhibition in test [2] was 44%; in test [3], 71%. `Nc1ncnc2c1ncn2[C@@H]1O[C@H](COP(=O)(O)OP(=O)(O)OP(=O)(O)OP(=O)(O)OC[C@H]2O[C@@H](n3cnc4c(N)ncnc43)[C@H](O)[C@@H]2O)[C@@H](O)[C@H]1O` [DIADENOSINE TETRAPHOSPHATE] yielded an IC50 in test [1] of 46 µM. As for `O=C1c2ccc(O)cc2O[C@H](c2ccc(O)c(O)c2)[C@H]1O` [FUSTIN], in test [4], the IC50 is recorded as > 5 ×10² ug/ml. Regarding `Nc1ncnc2c1ncn2[C@@H]1O[C@H](COP(=O)(O)OP(=O)(O)OP(=O)(O)OP(=O)(O)O)[C@@H](O)[C@H]1O`, in test [1], the IC50 worked out at 9 µM. For the compound `O=C(O)/C=C/c1ccc(O)cc1` [COUMARIC ACID], the IC50 in test [4] was > 300 µg/mL.

Consider `O=C1C[C@@H](c2ccc(O)cc2)Oc2cc(O)cc(O)c21` [NARINGENIN], for which the IC50 in test [4] is 8 ×10¹ ug/ml. Turning to `COc1cc(/C=C/C(=O)O)ccc1O` [FERULATE], the IC50 in test [4] was > 300 µg/mL. `Oc1cc(O)cc(/C=C/c2ccc(O)c(O)c2)c1` [PICEATANNOL]: the IC50 in test [4] was 4 µg/mL (≈ 16.4 µM). `C[C@H](NC(=O)c1ccc(S(=O)(=O)Oc2ccc(/C=C/[N+](=O)[O-])cc2)cc1)C(=O)N[C@@H](C)C(=O)NCCN`: the IC50 in test [5] and in test [6] was 20 µM each time. Regarding `O=C1C[C@@H](c2ccccc2)Oc2cc(O)cc(O)c21` [PINOCEMBRIN], the IC50 in test [4] is on record as > 5 ×10² ug/ml.

Turning to `CC(=O)N[C@@H](C)C(=O)N[C@@H](C)C(=O)N[C@@H](Cc1ccccc1)C(=O)N[C@H](C(=O)CCl)[C@@H](C)O` (Ac-AAFT-CH2Cl), the inhibition is 10% in test [2] and 4% in test [3]. With `CC(C)NC(=O)c1ccc(S(=O)(=O)Oc2ccc(/C=C/[N+](=O)[O-])cc2)cc1`, the IC50 in test [5] was 1 µM; in test [6] it was > 100 µM. On to `CC(C)C[C@H](NC(=O)OCc1ccccc1)C(=O)C=[N+]=[N-]`, for which the inhibition in test [2] amounted to 18%; in test [3] it was 15%.

In the case of `CC(=O)N[C@@H](Cc1ccccc1)C(=O)NCC(=O)N[C@@H](C)C(=O)N[C@@H](CC(C)C)C(=O)CCl` (Ac-FGAL-CH2Cl), the inhibition in test [2] is 29%; in test [3], 59%.

Regarding `CC(C)(C)OC(=O)NCCNC(=O)c1ccc(S(=O)(=O)Oc2ccc(/C=C/[N+](=O)[O-])cc2)cc1`, the IC50 stood at 1 µM in test [5] and 100 µM in test [6].

As to `O=C(O)c1ccc(S(=O)(=O)Oc2ccc(/C=C/[N+](=O)[O-])cc2)c(O)c1`, the results for the IC50 in test [5] and in test [6] were 0.3 µM and 100 µM, respectively.

On to `CC(C)C[C@H](N)C(=O)CCl`, for which the inhibition in test [2] was determined as 0%; in test [3], 16%. For `CC(C)C[C@H](NC(=O)OC(C)(C)C)C(=O)CBr`, the inhibition in test [2] came out at 69%; in test [3], 65%. Taken in the same sequence, the figures for `O=C(CCl)[C@H](Cc1ccccc1)NOCc1ccccc1` were 15% and 21%. The compound `O=C1c2c(O)cc(O)cc2O[C@H](c2ccc(O)c(O)c2)[C@H]1O` [(+)-TAXIFOLIN] came in with an IC50 in test [4] of 3 ×10² ug/ml.

In the case of `Nc1nc2c(ncn2[C@@H]2O[C@H](COP(=O)(O)OP(=O)(O)OP(=O)(O)OP(=O)(O)OC[C@H]3O[C@@H](n4cnc5c(=O)[nH]c(N)nc54)[C@H](O)[C@@H]3O)[C@@H](O)[C@H]2O)c(=O)[nH]1`, the IC50 in test [1] was > 100 µM. Take `Cc1ccc([C@@H]2CC(=O)c3c(O)cc(O)cc3O2)cc1`: the IC50 in test [4] worked out at 3 ×10¹ ug/ml. As to `O=C(CCl)[C@H](Cc1c[nH]c2ccccc12)NOCc1ccccc1`, the figures for the inhibition in test [2] and in test [3] were 10% and 6%, respectively. With `O=C(O)c1ccc(S(=O)(=O)Oc2ccc(/C=C/[N+](=O)[O-])cc2)cc1O`, the values for the IC50 in test [5] and in test [6] were 0.05 µM and 30 µM, respectively. With `COC(=O)c1ccc(S(=O)(=O)Oc2ccc(/C=C/[N+](=O)[O-])cc2)cc1O`, the IC50 in test [5] was 2 µM; in test [6] it was > 100 µM. Taken in the same sequence, the figures for `NCCNC(=O)c1ccc(S(=O)(=O)Oc2ccc(/C=C/[N+](=O)[O-])cc2)cc1` were 5 µM and > 5 µM. With `COC(=O)c1ccc(S(=O)(=O)Oc2ccc(/C=C/[N+](=O)[O-])cc2)cc1`, the IC50 is 2 µM in test [5] and > 100 µM in test [6]. As for `CC(=O)NCC(=O)NCC(=O)N[C@@H](C)C(=O)N[C@@H](Cc1ccccc1)C(=O)CCl` (Ac-GGAF-CH2Cl), the inhibition in test [2] turned out to be 0%; in test [3], 5%.
